“And” between values parts separate entries of the source, which are not always exact repeats. Identical values can stand only once. Like-named read-outs stand apart in the source and are kept apart here. Each block holds one molecule with its values, some of them ahead of it.
What was measured:
PfSpdS [1] = target: T1, PfSpdS (Plasmodium falciparum, UniProt Q8II73); details: cited from earlier work
PfSpdS [2] = target: T1, PfSpdS; test: biochemical; format: binding
Protocol: Protein samples of 1 mg/ml were dialyzed overnight at 4°C against buffer containing 100 mM HEPES, pH 7.5, 250 mM NaCl. Protein concentration was determined by UV absorption (A280 = 1 for 1.3 mg/mL) immediately before loading into the calorimeter cell. […] The protein at a concentration of 0.8–30 μM was loaded into the sample cell of a VP-ITC microcalorimeter (MicroCal, Inc.). All measurements were performed at 25°C with 25 injections of the ligand of 10 μl each delivered in 20 s with 240 s delays between injections. […] Titrations of ligands into dialysis buffer were performed additionally and in case of non-negligible dilution heat the dilution profile(s) were subtracted point-by-point from the reaction profile. The dilution factor was taken into account for the binding curve fitting. Prior to titration of a second ligand into protein in presence of a first ligand, titration of dcAdoMet or MTA was carried out to saturating concentrations. […] The ligand- and buffer-subtracted integrated binding data were fitted using a single-site binding model in MicroCal Origin software.
The solution conditions for which the reported parameter values apply are 100 mM HEPES pH 7.5, 250 mM NaCl, 25°C.

PfSpdS [3] = target: T1, PfSpdS; test: biochemical; details: for inhibitory effects on PfSpdS activity: at concentrations of 0.1 or 1 mM, data not shown
Protocol: The enzyme assays were incubated for 30 min at 37°C and terminated by addition of 100 μl of 0.4 M HClO4. The amount of spermidine formed was determined by HPLC with θ-phthaldialdehyde as the reagent essentially as described by Seiler & Knödgen.
Determination of IC50 values was performed in standard assays containing increasing concentrations of inhibitors.

mammalian SpdS = details: cited from earlier work
P. falciparum = test system: P. falciparum; design: method as in PMID 15913804; details: at micromolar concentrations; cited from earlier work
PfSpdS [4] = target: T1, PfSpdS; design: method as in PMID 18410081; details: cited from earlier work
human SpdS = target: human SpdS; design: method as in PMID 21898642; details: 20 mM sodium phosphate pH 7.5, 50 mM NaCl, 25°C; cited from earlier work
[5] = free PfSpdS, 100 mM HEPES pH 7.5, 250 mM NaCl, 25°C
[6] = free PfSpdS, 100 mM HEPES pH 7.5, 250 mM NaCl, 25°C, read-out: KD
[7] = PfSpdS saturated with MTA (ligand 1), values for ligand 2
[8] = PfSpdS saturated with MTA (ligand 1), values for ligand 2, read-out: KD
[9] = KD, PfSpdS saturated with MTA (ligand 1), values for ligand 2
[10] = KD, free PfSpdS, 100 mM HEPES pH 7.5, 250 mM NaCl, 25°C
[11] = free PfSpdS, listed as with footnote mark a
[12] = free PfSpdS, listed as with footnote mark b: fit was done setting N = 1

T1 sequence (Q8II73 entry or part of it): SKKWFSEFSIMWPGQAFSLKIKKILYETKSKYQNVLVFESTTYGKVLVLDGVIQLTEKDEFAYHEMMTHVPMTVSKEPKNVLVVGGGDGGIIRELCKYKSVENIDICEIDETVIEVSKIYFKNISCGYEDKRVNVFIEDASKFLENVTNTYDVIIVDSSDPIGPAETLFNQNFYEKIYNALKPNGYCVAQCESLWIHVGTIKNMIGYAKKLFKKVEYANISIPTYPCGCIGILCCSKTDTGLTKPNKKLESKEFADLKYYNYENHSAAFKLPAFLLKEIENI

Molecule: 5′-methylthioadenosine [MTA]
IC50 (PfSpdS [1]; 100 μM dcAdoMet, 200 μM putrescine): 160 µM and 159 µM
Inhibition type (PfSpdS [1]): product inhibition
ΔH (PfSpdS [2]; [5]): -2.7 ± 0.3 kcal/mol
ΔS (PfSpdS [2]; [5]): 18.6 cal/mol/deg
Kd (PfSpdS [2]; [6]): 0.9 ± 0.5 µM

inhibitory effects on PfSpdS activity (PfSpdS [3]): no or only minor inhibitory effects
IC50 (PfSpdS [3]; read-out: IC50): > 1000 µM
affinity for free PfSpdS (in words) (PfSpdS [2]): no measurable affinity
ΔH (PfSpdS [2]; [7]): -3.5 ± 0.2 kcal/mol
ΔS (PfSpdS [2]; [7]): 7.84 cal/mol/deg
Kd (PfSpdS [2]; [8]): 45.3 ± 5.1 µM
Kd (PfSpdS [2]; PfSpdS saturated with dcAdoMet (ligand 1), values for ligand 2, read-out: KD): > 300 µM
Kd (PfSpdS [2]; [6]): > 300 µM
Molecule: NCc1ccc(N)cc1 [4AMA, 4-aminomethylaniline]

Molecule: Cc1ccc(N)cc1 [4MAN, 4-methylaniline]
IC50 (mammalian SpdS): 108 µM
IC50 (PfSpdS [3]): 23 µM
Ki (PfSpdS [3]): 8.2 µM
Inhibition type (PfSpdS [3]; Lineweaver-Burke plots, 0.1 mM dcAdoMet): competitive with putrescine
affinity for free PfSpdS (in words) (PfSpdS [2]): no measurable affinity
Kd (PfSpdS [2]; [9]): > 300 µM
Kd (PfSpdS [2]; KD, PfSpdS saturated with dcAdoMet (ligand 1), values for ligand 2): 7.7 ± 1.2 µM
Kd (PfSpdS [2]; [10]): > 300 µM
affinity to PfSpdS in presence of MTA (in words) (PfSpdS [2]; PfSpdS saturated with MTA, detection limit KD ~ 300 μM): no detectable affinity

Molecule: C[C@H]1CC[C@H](N)CC1 [4MCHA, trans-4-methylcyclohexylamine]
Inhibition type (PfSpdS [1]): competitive inhibitor with respect to putrescine
Ki (PfSpdS [1]): 0.18 µM
inhibition of P. falciparum cell growth in vitro (in words) (P. falciparum): strongly inhibit

Inhibition type (PfSpdS [3]): mixed-type inhibition with putrescine
Ki uncompetitive (PfSpdS [3]): 12.2 µM
Ki (PfSpdS [3]; read-out: Ki competitive): 3.4 µM
IC50 (PfSpdS [3]; read-out: predicted IC50 from Eq (2)): 10 µM
ΔH (PfSpdS [2]; [5]): -5.5 ± 0.2 kcal/mol
ΔS (PfSpdS [2]; [5]): 6.9 cal/mol/deg
Kd (PfSpdS [2]; [6]): 2.8 ± 0.5 µM
Molecule: NCCCCCC(CCN)SCC1OC(n2cnc3c(N)ncnc32)C(O)C1O (stereo not drawn) [AdoDATO, S-adenosyl-3-thio-1,8-diaminooctane]

IC50 (PfSpdS [3]; PfSpdS assays, L. Persson, unpublished results, read-out: IC50): > 100 µM
inhibitory effects on PfSpdS activity (PfSpdS [3]): no or only minor inhibitory effects
IC50 (PfSpdS [3]; read-out: IC50): > 1000 µM
ΔH (PfSpdS [2]; [5]): 1.5 ± 0.3 kcal/mol
ΔS (PfSpdS [2]; [5]): 27.1 cal/mol/deg
Kd (PfSpdS [2]; [6]): 15.2 ± 8.2 µM
Molecule: NCCCCCc1nc2ccccc2[nH]1 [BIPA, 5-(1H-benzimidazol-2-yl)pentan-1-amine]
binding to the enzyme by NMR spectroscopy (in words) (PfSpdS [4]): bind strongly

ΔH (PfSpdS [2]; [7]): -0.6 ± 0.1 kcal/mol
ΔS (PfSpdS [2]; [7]): 28.4 cal/mol/deg
Kd (PfSpdS [2]; [8]): ~0.3 µM and 0.3 µM
ΔH (PfSpdS [2]; [11]): 51.8 ± 2.5 kcal/mol
ΔS (PfSpdS [2]; [11]): 196 cal/mol/deg
Kd (PfSpdS [2]; free PfSpdS, listed as with footnote mark a, read-out: KD): 8.4 ± 0.7 µM
ΔH (PfSpdS [2]; [12]): 17.6 ± 9.0 kcal/mol
ΔS (PfSpdS [2]; [12]): 82.8 cal/mol/deg
Kd (PfSpdS [2]; free PfSpdS, listed as with footnote mark b: fit was done setting N = 1, read-out: KD): 6.1 ± 1.6 µM
Molecule: NCCCN[C@H]1CC[C@H](N)CC1 [NACD]

Molecule: NCCCCN [Putrescine, putrescine]
Km (PfSpdS [1]; read-out: Km for putrescine, 29-residue-truncated PfSpdS): 52 µM
Kd (PfSpdS [2]; [9]): 59.5 ± 8.2 µM
Kd (PfSpdS [2]; [10]): > 300 µM
ΔH (PfSpdS [2]; [7]): -12.4 ± 0.9 kcal/mol
ΔS (PfSpdS [2]; [7]): -22.4 cal/mol/deg
affinity for free PfSpdS (in words) (PfSpdS [2]; free PfSpdS, detection limit KD ~ 300 μM): no measurable affinity

Molecule: NCCCCNCCCN [Spermidine, spermidine]
affinity for free PfSpdS (in words) (PfSpdS [2]): no measurable affinity
Kd (PfSpdS [2]; [9]): 1.2 ± 0.3 µM
Kd (PfSpdS [2]; [10]): > 300 µM
ΔH (PfSpdS [2]; [7]): -6.1 ± 0.3 kcal/mol
ΔS (PfSpdS [2]; [7]): 6.74 cal/mol/deg

Molecule: C[S+](CCCN)CC1OC(n2cnc3c(N)ncnc32)C(O)C1O (stereo not drawn) [dcAdoMet, decarboxylated S-adenosylmethionine]
Kd (PfSpdS [2]; [10]): 3.7 ± 0.7 µM
ΔH (PfSpdS [2]; [5]): -2.4 ± 0.2 kcal/mol
ΔS (PfSpdS [2]; [5]): 16.7 cal/mol/deg

Molecule: NCCCSC[C@H]1O[C@@H](n2cnc3c(N)ncnc32)[C@H](O)[C@@H]1O [decarboxylated S-adenosylhomocysteine]
Kd (human SpdS): 1.1 µM
